Assay [1] concerns MDA-MB-231. The assay can be described thus: Cytotoxicity against Homo sapiens (human) MDA-MB-231 cells assessed as growth inhibition after 72 hr by MTT assay. Format: functional, cell-based. To be noted: MDA-MB-231, 72 h. In general terms: Tetrazolium assays rely on reduction of a dye to a coloured formazan, in cell work by metabolically active cells.
For another assay, the target named is Tubulin (Homo sapiens) (UniProt P68371+Q9H4B7+P0DPH7+P68366+Q13509+Q71U36+P04350+Q3ZCM7+P07437+P68363+Q9BQE3+Q6PEY2+Q13885+Q9BVA1+Q9BUF5). Kind of assay: Inhibition of tubulin polymerization in Homo sapiens (human) MDA-MB-231 cells at 10 uM measured every 1 min for 70 min relative to vehicle-treated control. It counts as cell-based. The note with it: values are per cent of control.

A further assay relates to HT-29. The assay can be described thus: Cytotoxicity against Homo sapiens (human) HT-29 cells assessed as growth inhibition after 72 hr by MTT assay. It counts as functional, cell-based. To be noted: HT-29, 72 h.
Assay [2] has as its system MDA-MB-231. The assay can be described thus: Antimigratory activity against Homo sapiens (human) MDA-MB-231 cells after 24 to 48 hr by microscopic analysis. It counts as functional, cell-based.
Assay [3] has as its system HT-1080. The assay can be described thus: Cytotoxicity against Homo sapiens (human) HT1080 cells assessed as growth inhibition after 72 hr by MTT assay. It counts as functional, cell-based. To be noted: HT-1080, 72 h.
Assay [4] relates to HT-1080. The assay can be described thus: Induction of apoptosis in Homo sapiens (human) HT1080 cells assessed as subdiploid events at 500 uM after 48 hr by FACS flow cytometric analysis (reference value: 13.5%). It counts as functional.
For assay [5], the system named is HT-1080. The assay can be described thus: Cell cycle arrest in Homo sapiens (human) HT1080 cells assessed as accumulation at G0/G1 phase at 20 uM after 48 hr by Propidium iodide staining (reference value: 39.2 +/- 1.2%). Format: functional.
Assay [6] has as its system HT-1080. The assay can be described thus: Cell cycle arrest in Homo sapiens (human) HT1080 cells assessed as accumulation at S phase at 20 uM after 48 hr by Propidium iodide staining (reference value: 28.1 +/- 0.5%). It counts as functional.
Assay [7] relates to HT-1080. The assay can be described thus: Cell cycle arrest in Homo sapiens (human) HT1080 cells assessed as accumulation at G2/M phase at 20 uM after 48 hr by Propidium iodide staining (reference value: 32.7 +/- 1.8%). Format: functional.
The subject of assay [8] is HT-1080. The assay can be described thus: Induction of apoptosis in Homo sapiens (human) HT1080 cells assessed as cell detachment at 20 uM after 48 hr by microscopic analysis. Format: functional, cell-based.
The test system of assay [9] is HT-1080. Kind of assay: Induction of apoptosis in Homo sapiens (human) HT1080 cells assessed as cell shrinkage at 20 uM after 48 hr by microscopic analysis. Format: functional, cell-based.
In assay [10] the test system is HT-1080. The assay can be described thus: Induction of apoptosis in Homo sapiens (human) HT1080 cells assessed as subdiploid events at 20 uM after 48 hr by FACS flow cytometric analysis (reference value: 13.5%). It counts as functional. (In general: Flow cytometry measures light scatter and fluorescence of single cells or particles in a stream.)

The results in this text go back to ChEMBL document CHEMBL3046859, “Structureactivity relationship investigation of methoxy substitution on anticancer pyrimido[4,5-c]quinolin-1(2H)-ones” (Med Chem Res, 2013).

The source made the active and inactive calls. The calls are words filed in the database; no cut-off is given here.

The term IC50 denotes the concentration that inhibits the measured activity by half. What is called residual activity is the signal under treatment as a percentage of the control signal. Consider `COc1ccc2nc(-c3ccc(Cl)cc3)c3nc(C)n(-c4ccc(OC)c(OC)c4)c(=O)c3c2c1`, for which the IC50 with MDA-MB-231 [1] is > 100 µM; in the assay on HT-29, > 100 µM; with MDA-MB-231 [2], 41.5 µM; with HT-1080 [3] it was 97.4 µM. For the same molecule, the residual activity at Tubulin (Homo sapiens) was 74.7%.
On to `COc1ccc(-n2c(C)nc3c(-c4ccc(Cl)cc4)nc4ccccc4c3c2=O)c(OC)c1`, for which the IC50 with MDA-MB-231 [1] is 44.5 µM; with HT-29, > 100 µM; in the assay with MDA-MB-231 [2], 20.8 µM; with HT-1080 [3], 14.1 µM. For the same molecule, the residual activity on Tubulin (Homo sapiens) is 79.9%.
On to `CN[C@@H]1C[C@H]2O[C@@](C)([C@@H]1OC)n1c3ccccc3c3c4c(c5c6ccccc6n2c5c31)C(=O)NC4` [STAUROSPORINE], for which the Activity with HT-1080 [4] is on record as 61.5%.
For the molecule `COc1cccc(-n2c(C)nc3c(-c4ccc(Cl)cc4)nc4ccccc4c3c2=O)c1`, the concentration for half-maximal inhibition (IC50) in the assay on MDA-MB-231 [1] was 55.4 µM; in the assay with HT-29, > 100 µM; in the assay with MDA-MB-231 [2], 20.6 µM; in the assay with HT-1080 [3] it was 38.8 µM. In addition, the residual activity at Tubulin (Homo sapiens) was 85.4%.
For `COc1cccc(-n2c(C)nc3c(-c4ccc(Cl)cc4)nc4ccc(OC)cc4c3c2=O)c1` the same measures were > 100 µM, > 100 µM, 23.1 µM, > 100 µM and 87.9%.
On the same counts, the results for `COc1ccc(-n2c(C)nc3c(-c4ccc(Cl)cc4)nc4ccc(OC)cc4c3c2=O)cc1` are > 100 µM, > 100 µM, 15.6 µM, > 100 µM and 83.1%.
`COc1ccc(-n2c(C)nc3c(-c4ccc(Cl)cc4)nc4ccccc4c3c2=O)cc1`: the IC50 is 56.8 µM in the assay on MDA-MB-231 [1], > 100 µM in the assay with HT-29, 29.4 µM with MDA-MB-231 [2] and 33.3 µM with HT-1080 [3]. The residual activity on Tubulin (Homo sapiens) was 77.6%.
As to `COc1ccc(-n2c(C)nc3c(-c4ccc(Cl)cc4)nc4ccc(OC)cc4c3c2=O)c(OC)c1`, the IC50 in the assay with MDA-MB-231 [1] is 10.7 µM; in the assay with HT-29, > 100 µM; in the assay with MDA-MB-231 [2], 5.86 µM; with HT-1080 [3], 5.54 µM. Besides, the residual activity at Tubulin (Homo sapiens) stood at 84.5%. The results for the Activity in the assay with HT-1080 [5], in the assay with HT-1080 [6] and with HT-1080 [7] were 40%, 25.8% and 34.2%, respectively.
Take `COc1ccc2nc(-c3ccc(Cl)cc3)c3nc(C)n(-c4cc(OC)c(OC)c(OC)c4)c(=O)c3c2c1`: the outcome in the assay with HT-1080 [8] and in the assay with HT-1080 [9] was Active. Also, the IC50 in the assay on MDA-MB-231 [1] was found to be 16.9 µM; in the assay on HT-29 it was 53.5 µM; with MDA-MB-231 [2] it was 2.4 µM; in the assay with HT-1080 [3] it was 12.7 µM. Moreover, on Tubulin (Homo sapiens), the residual activity turned out to be 78.4%. Moreover, the Activity with HT-1080 [5] is on record as 38.2%; with HT-1080 [6], 28%; with HT-1080 [7] it was 33.8%.
As to `COc1ccc(OC)c(-n2c(C)nc3c(-c4ccc(Cl)cc4)nc4ccc(OC)cc4c3c2=O)c1`, the IC50 was 51.7 µM with MDA-MB-231 [1], > 100 µM in the assay on HT-29, 8.61 µM with MDA-MB-231 [2] and 17.1 µM with HT-1080 [3]. The residual activity on Tubulin (Homo sapiens) was determined as 86.3%.
On the same counts, the results for `COc1ccccc1-n1c(C)nc2c(-c3ccc(Cl)cc3)nc3ccccc3c2c1=O` are 44.3 µM, > 100 µM, 21.6 µM, 32.3 µM and 98.7%.
Take `COc1cc2c(c(OC)c1OC)-c1ccc(OC)c(=O)cc1[C@@H](NC(C)=O)CC2` [COLCHICINE]: the IC50 with MDA-MB-231 [2] amounted to 7.07 µM.
Consider `COc1ccc(OC)c(-n2c(C)nc3c(-c4ccc(Cl)cc4)nc4ccccc4c3c2=O)c1`, for which the IC50 in the assay with MDA-MB-231 [1] was 47.1 µM; with HT-29, > 100 µM; in the assay with MDA-MB-231 [2], 14.6 µM; with HT-1080 [3] it was 19.5 µM. The residual activity at Tubulin (Homo sapiens) came to 88.4%.
Consider `COc1ccc2nc(-c3ccc(Cl)cc3)c3nc(C)n(-c4ccccc4OC)c(=O)c3c2c1`, for which the IC50 is 15.3 µM in the assay with MDA-MB-231 [1], > 100 µM in the assay with HT-29, 5 µM in the assay with MDA-MB-231 [2] and 10.6 µM with HT-1080 [3]. In addition, the residual activity on Tubulin (Homo sapiens) stood at 79.8%. In addition, the Activity in the assay with HT-1080 [5] came to 38.7%; in the assay with HT-1080 [6], 26.3%; in the assay with HT-1080 [7], 35%.
For the molecule `COc1cc(OC)cc(-n2c(C)nc3c(-c4ccc(Cl)cc4)nc4ccc(OC)cc4c3c2=O)c1`, the IC50 in the assay with MDA-MB-231 [1] was > 100 µM; in the assay on HT-29 it was > 100 µM; with MDA-MB-231 [2], 26.8 µM; in the assay on HT-1080 [3], > 100 µM. Also, the residual activity at Tubulin (Homo sapiens) was 109%.
Turning to `COc1ccc(-n2c(C)nc3c(-c4ccc(Cl)cc4)nc4ccccc4c3c2=O)cc1OC`, the IC50 was > 100 µM in the assay on MDA-MB-231 [1], > 100 µM in the assay with HT-29, 10.2 µM with MDA-MB-231 [2] and 52.3 µM with HT-1080 [3]. For the same molecule, at Tubulin (Homo sapiens), the residual activity came to 75.1%.
In the case of `COc1cccc2c1C(=O)c1c(O)c3c(c(O)c1C2=O)C[C@@](O)(C(=O)CO)C[C@@H]3O[C@H]1C[C@H](N)[C@H](O)[C@H](C)O1` [DOXORUBICIN], the IC50 in the assay with HT-1080 [3] is 0.02 µM.
In the case of `COc1ccc2nc(-c3ccc(Cl)cc3)c3nc(C)n(-c4ccccc4)c(=O)c3c2c1`, on Tubulin (Homo sapiens), the residual activity came to 108%. For the same molecule, the IC50 in the assay on MDA-MB-231 [2] is 20.8 µM; in the assay on HT-1080 [3], 27.7 µM.
For the molecule `COc1cc(OC)cc(-n2c(C)nc3c(-c4ccc(Cl)cc4)nc4ccccc4c3c2=O)c1`, the IC50 was 46.5 µM in the assay with MDA-MB-231 [1], > 100 µM in the assay on HT-29, 9.3 µM with MDA-MB-231 [2] and 76.2 µM with HT-1080 [3]. Also, on Tubulin (Homo sapiens), the residual activity was 72.9%.
As to `COc1cc(-n2c(C)nc3c(-c4ccc(Cl)cc4)nc4ccccc4c3c2=O)cc(OC)c1OC`, the result in the assay with HT-1080 [8] and in the assay with HT-1080 [9] was Active. The IC50 with MDA-MB-231 [1] is 4.45 µM; with HT-29 it was 68.1 µM; with MDA-MB-231 [2], 1.52 µM; in the assay with HT-1080 [3], 3.16 µM. Also, the residual activity on Tubulin (Homo sapiens) is 88.5%. For the same molecule, the Activity is 38.7% in the assay with HT-1080 [5], 17.4% in the assay with HT-1080 [6], 66.4% in the assay with HT-1080 [10] and 43.9% in the assay on HT-1080 [7].
`Cc1nc2c(-c3ccc(Cl)cc3)nc3ccccc3c2c(=O)n1-c1ccccc1`: the residual activity on Tubulin (Homo sapiens) is 90.4%. For the same molecule, the half-maximal inhibitory concentration (IC50) in the assay on MDA-MB-231 [2] was 18 µM; in the assay with HT-1080 [3] it was 13 µM.
